Experimental findings from patent EP2823816A1, “Inhibitors of Neuropilin and use thereof for the treatment of Neuropilin-related diseases” (Tragex Pharma, priority 2013, dated 2015) are described below.

One test has as its system MDA-MB-231 cancer cells. Put plainly: Motility assay (videomicroscopy). The test is classed as cell-based, human. The following applies: MDA-MB-231, 24 h, at the IC50 of the proliferation assay, Figure 4. The method, then: Endothelial cells (HUVEC) and breast cancer cells (MDA-MB-231) were seeded in 35 mm diameter tissue culture dishes at 3×10^4 and 6×10^4 cells per dish respectively and treated separately with DMSO (control) and compound 1 of the invention (treatment) for 24 h, at the concentration of IC50 obtained with the proliferation assay.
The dishes were placed in an enclosed warming incubator on the motorized stage of a computer-controlled Eclipse Ti inverted microscope (Nikon Instruments Europe) equipped with a CCD Cool- SNAP HQ2 camera (Roper Scientific, USA) and a PC workstation. The incubator allowed samples to be kept at 37°C in a humidified atmosphere containing 5% CO2, 95% air. Phase images were recorded at 100× every 5 min simultaneously over several fields from 0 till 24 h (288 frames). Cell motility was tracked and analyzed for at least 25 cells in each field over three independent experiments. The total distance of migration and the speed of migration were analyzed. The degree of persistence of movement was defined as the ratio between the linear distance and the total distance covered by the cells. Image acquisition and analyses were carried out using Metamorph7 software (Universal Imaging).

A further test relates to MDA-MB-231. As to the kind of experiment: WST-1 proliferation / cytotoxic test. The test is classed as cell-based, human. The following applies: for IC50: Homo sapiens. The method, then:
After observation of cells under the microscope, old media were removed and the adherent cells washed gently twice with PBS (Phosphate Buffer Saline, -Ca^2+, -Mg^2+, Lonza cat n°: 17-512F/12). All cells were detached with 3 ml of trypsin/EDTA (chelator of calcium and magnesium ions) (Lonza), incubated for 5 min at 37°C, and examined using a microscope to ensure that the cells were detached and floating. Then, 3 ml TNS (Trypsin Neutralizing Solution, Lonza, France, cat n° CC-5002) or of culture medium were added to inactivate the trypsin, and the cell suspension was transferred in a falcon tube and centrifuged for 7 min at 1400 rpm. The supernatant was removed and the cell pellet resuspended in […] of culture medium. 50 µL of this solution were transferred in 20 µL of isotonic solution and the cells were counted by count cellular (Beckman Coulter). […]
The cell proliferation WST-1 assay is a colorimetric assay for the quantification of cell proliferation and viability, based on the enzymatic cleavage of the tetrazolium salt WST-1 added to the culture medium, to a water soluble colored formazan dye, detected by absorbance at 450 nm, by mitochondrial succinate-tetrazoliumreductase in viable cells. […]
After an incubation period of 72 h, at day 4, were prepared the 19 mL medium with reagent WST-1 1mL (10 mL WST-1 in 200 mL well). […] The cells were incubated at 37°C in a humidified atmosphere of 5% CO2 for 1h30 and the absorbance at 450-655 nm was measured by Microplate Manager 5.2 (Bio-Rad).
(In general: Tetrazolium assays rely on reduction of a dye to a coloured formazan, in cell work by metabolically active cells.)

For test [1], the system named is MDA-MB-231 + control shRNA. Put plainly: Proliferation assay in shRNA-transfected cells. The format is cell-based. The following applies: Homo sapiens; inhibition of proliferation; clone MDA-MB-231 + control shRNA. The text has this:
(§1) The cell proliferation WST-1 assay is a colorimetric assay for the quantification of cell proliferation and viability, based on the enzymatic cleavage of the tetrazolium salt WST-1 added to the culture medium, to a water soluble colored formazan dye, detected by absorbance at 450 nm, by mitochondrial succinate-tetrazoliumreductase in viable cells. An augmentation in enzyme activity will then lead to an increase in the amount of formazan dye formed, which directly correlates to the number of metabolically active cells in the culture.
(§2) After an incubation period of 72 h, at day 4, were prepared the 19 mL medium with reagent WST-1 1mL ([…]). The medium was removed from the 96 microplate and 200 µL of solution WST-1/medium were added for each well. The cells were incubated at 37°C in a humidified atmosphere of 5% CO2 for 1h30 and the absorbance at 450-655 nm was measured by Microplate Manager 5.2 (Bio-Rad).
(§3) The effect of compound 1 of the invention on cell proliferation was tested according to the proliferation assay hereinabove described, in MDA-MB-231 cancer cells transfected with shRNA directed to NRP1 or NRP2 or with control shRNA.

Test [2] concerns MDA-MB-231 + shRNA directed to NRP2. Put plainly: Proliferation assay in shRNA-transfected cells. The following applies: Homo sapiens; inhibition of proliferation; clone MDA-MB-231 + shRNA directed to NRP2. The test is classed as cell-based.
Excerpt: as §1, §2, §3

Test [3] deals with MDA-MB-231 + shRNA directed to NRP1. As to the kind of experiment: Proliferation assay in shRNA-transfected cells. The test is classed as cell-based. The following applies: Homo sapiens; inhibition of proliferation; clone MDA-MB-231 + shRNA directed to NRP1.
Excerpt: as §1, §2, §3

As usually defined, the IC50 is the concentration that gives 50% inhibition.

For the compound `CCOc1ccccc1NC(=O)c1ccc(C)c(S(=O)(=O)Nc2ccc(C)cc2)c1` [Compound 1, N-(2-ethoxyphenyl)-4-methyl-3-(N-(p-tolyl)sulfamoyl)benzamide], the “motility of cancer cells (migration speed)” value with MDA-MB-231 cancer cells is on record as “significant anti-migratory effect”. The IC50 with MDA-MB-231 (Breast, MDA-MB-231, wst-1 cytotoxic test, 72 h) stood at 700 ± 80 nM; in the test on MDA-MB-231 (inhibition of proliferation, clone MDA-MB-231 (Table 2)), 700 ± 50 nM; in test [1] it was 800 ± 50 nM; in test [2] it was 10000 ± 50 nM; in test [3], 9000 ± 80 nM. Also, in the test on MDA-MB-231 (in vitro, Figure 3B), the “proliferation of MDA-MB-231 cells” value was “inhibits”.
